Source: patent US20240327364A1, “THERAPEUTIC TARGETING OF GPR68 TO INDUCE FERROPTOSIS” (University Of Maryland, Baltimore, priority 2023, published 2024)

Tests used:
MeWo = assay: Scratch assay; type: cell-based, human; conditions: 20 hours, OGM2 5 uM
Method: (§1) Since there are numerous parallels are found between neural crest cells and cancer during migration, we examined whether OGM could inhibit the migration of cells in human melanoma cell lines (Oppitz et al., 2007; Schriek et al., 2005, Sinnberg et al., 2018). […] A2058. MeWo and WM115 cells were grown to confluence and a stripe of cells were denuded with a p200 pipette tip “scratch” and rinsed with PBS. Cells were treated with OGM or DMSO and incubated in low serum media. Imaging was done at 30 minutes after “scratch” and then 20 hours afterwards. Areas were then measured and normalized to the initial area.

WM115 = assay: Scratch assay; type: cell-based, human; conditions: 20 hours, OGM2 5 uM
Method: as §1

A549 = assay: Cell Titer-Glo viability, Lung Adenocarcinoma; type: cell-based; conditions: 72 hours
Method: OGM2 kills wide variety of cancer cell types. Cell sensitivity can be classified in to Very Sensitive (LC50<2 μM), Sensitive (LC50=2 to 10 μM), Mildly Sensitive (LC50>10 μM), and Refractory (no killing at 10 μM). The listed established cell were incubated with OGM2 at 2 μM or 10 μM for 72 hours under standard cell culture conditions, and relative cell number was assessed using Cell Titer-Glo Luminescent Cell Viability Assay (Promega™) following the manufacturer's instructions. Luminescence was determined using a Cytation 5 reader and Gen5 software package (BioTek™).
Cancer cells, which are very sensitive to killing by OGM2 (LCs <2 μM), with reported mRNA expression of GPR68 and the related proton sensing receptor GPR4. LC50's (concentrations causing 50% lethality) were determined using CellTiter-Glo (Promega™, G7570). Cells were plated in 12-well plates (CELLTREAT Scientific Products, 229112) in 1 ml of DMEM with high glucose, GlutaMAX, HEPES, or RPMI 1640 with Penicillin-Streptomycin (ThermoFisher™, 10564029, 11875119 and 15140122) and 10% FBS. Cells were incubated overnight at 37° C. in 5% CO2. Then 1 mL of fresh media was added with DMSO, OGM, or positive control (Erastin; APExBIO Technology, LLC, B1524) and cells incubated for 3 days. On the third day, all media was removed, cells were rinsed with 1×PBS, PBS was removed, and 200 μL of 1× Passive Lysis Buffer (Promega™, E1941) was added to each well. […]. […] Plates were briefly spun down and read on a GloMax-Multi Detection System (Promega™).
The cells listed in the tables above were incubated with OGM2 at 2 μM or 10 μM for 72 hours under standard cell culture conditions, and relative cell number was assessed using Cell Titer-Glo Luminescent Cell Viability Assay (Promega™) following the manufacturer's instructions. Luminescence was determined using a Cytation 5 reader and Gen5 software package (BioTek™). […] The consensus normalized expression value (“nTPM”=normalize transcript per million) was calculated as the maximum nTPM value for each gene in the two data sources.

YSK4 = target: T1, YSK4 (Homo sapiens, UniProt Q56UN5); assay: KinomeScan; type: binding; conditions: read-out: % Control
T1 construct: purchased DiscoveRx

PLK4 = target: T2, PLK4 (Homo sapiens, UniProt O00444); assay: KinomeScan; type: binding; conditions: read-out: % Control
T2 construct: purchased DiscoveRx (Fremont, CA)

ABL1-nonphosphorylated = target: T3, ABL1-nonphosphorylated (Homo sapiens, UniProt P00519); assay: KinomeScan; type: binding; conditions: read-out: % Control
T3 construct: purchased DiscoveRx

OX1 = target: T4, OX1 (Homo sapiens, UniProt O43613); assay: GPCR Profiler; type: cell-based
T4 construct: host or cells: Chem-1 cells expressing Gα15

CDK11 = target: T5, CDK11 (Homo sapiens, UniProt Q9BWU1); assay: KinomeScan; type: binding; conditions: read-out: % Control
T5 construct: purchased DiscoveRx (KinomeScan service)

PRKG2 = target: T6, PRKG2 (Homo sapiens, UniProt Q13237); assay: KinomeScan; type: binding; conditions: read-out: % Control
T6 construct: purchased DiscoveRx (Fremont, CA)

NEK11 = target: T7, NEK11 (Homo sapiens, UniProt Q8NG66); assay: KinomeScan; type: binding; conditions: read-out: % Control
T7 construct: purchased DiscoveRx

FPR2 = target: T8, FPR2 (Homo sapiens, UniProt P25090); assay: GPCR Profiler; type: cell-based
T8 construct: host or cells: Chem-1 cells expressing Gα15

EPHB4 = target: T9, EPHB4 (Homo sapiens, UniProt P54760); assay: KinomeScan; type: binding; conditions: read-out: % Control
T9 construct: purchased DiscoveRx (Fremont, CA)

DCAMKL1 = target: T10, DCAMKL1 (Homo sapiens, UniProt O15075); assay: KinomeScan; type: binding; conditions: read-out: % Control
T10 construct: purchased DiscoveRx (Fremont, CA), KinomeScan service

MINK = target: T11, MINK (Homo sapiens, UniProt Q8N4C8); assay: KinomeScan; type: binding; conditions: read-out: % Control
T11 construct: purchased DiscoveRx

[1] = target: T12, ABL1(F317I)-phosphorylated (Homo sapiens, UniProt P00519, F317I); assay: KinomeScan; type: binding; conditions: read-out: % Control
T12 construct: purchased DiscoveRx

FYN = target: T13, FYN (Homo sapiens, UniProt P06241); assay: KinomeScan; type: binding; conditions: read-out: % Control
T13 construct: purchased DiscoveRx (Fremont, CA)

DCAMKL3 = target: T14, DCAMKL3 (Homo sapiens, UniProt Q9C098); assay: KinomeScan; type: binding; conditions: read-out: % Control
T14 construct: purchased DiscoveRx (Fremont, CA), KinomeScan service

T4 sequence (O43613 whole entry): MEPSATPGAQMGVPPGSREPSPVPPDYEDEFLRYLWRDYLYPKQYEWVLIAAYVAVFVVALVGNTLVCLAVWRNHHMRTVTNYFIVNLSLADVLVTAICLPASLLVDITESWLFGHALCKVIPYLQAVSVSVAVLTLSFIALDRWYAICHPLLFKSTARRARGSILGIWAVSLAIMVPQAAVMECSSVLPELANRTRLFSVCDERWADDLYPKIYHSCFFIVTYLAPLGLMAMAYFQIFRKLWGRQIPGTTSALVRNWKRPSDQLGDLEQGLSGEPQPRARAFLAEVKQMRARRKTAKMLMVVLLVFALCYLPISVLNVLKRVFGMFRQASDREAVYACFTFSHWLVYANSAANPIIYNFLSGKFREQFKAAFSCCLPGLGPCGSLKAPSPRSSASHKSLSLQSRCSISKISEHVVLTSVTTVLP
T8 sequence (P25090 whole entry): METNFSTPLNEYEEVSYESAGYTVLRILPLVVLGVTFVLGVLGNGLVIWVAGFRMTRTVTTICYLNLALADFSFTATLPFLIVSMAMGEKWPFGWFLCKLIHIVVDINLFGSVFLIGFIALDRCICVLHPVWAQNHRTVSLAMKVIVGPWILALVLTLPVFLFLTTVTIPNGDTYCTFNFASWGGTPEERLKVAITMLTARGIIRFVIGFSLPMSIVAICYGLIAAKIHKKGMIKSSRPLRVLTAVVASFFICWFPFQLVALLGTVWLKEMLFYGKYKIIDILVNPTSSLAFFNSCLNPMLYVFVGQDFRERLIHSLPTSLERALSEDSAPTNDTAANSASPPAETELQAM
T6 sequence (Q13237 whole entry): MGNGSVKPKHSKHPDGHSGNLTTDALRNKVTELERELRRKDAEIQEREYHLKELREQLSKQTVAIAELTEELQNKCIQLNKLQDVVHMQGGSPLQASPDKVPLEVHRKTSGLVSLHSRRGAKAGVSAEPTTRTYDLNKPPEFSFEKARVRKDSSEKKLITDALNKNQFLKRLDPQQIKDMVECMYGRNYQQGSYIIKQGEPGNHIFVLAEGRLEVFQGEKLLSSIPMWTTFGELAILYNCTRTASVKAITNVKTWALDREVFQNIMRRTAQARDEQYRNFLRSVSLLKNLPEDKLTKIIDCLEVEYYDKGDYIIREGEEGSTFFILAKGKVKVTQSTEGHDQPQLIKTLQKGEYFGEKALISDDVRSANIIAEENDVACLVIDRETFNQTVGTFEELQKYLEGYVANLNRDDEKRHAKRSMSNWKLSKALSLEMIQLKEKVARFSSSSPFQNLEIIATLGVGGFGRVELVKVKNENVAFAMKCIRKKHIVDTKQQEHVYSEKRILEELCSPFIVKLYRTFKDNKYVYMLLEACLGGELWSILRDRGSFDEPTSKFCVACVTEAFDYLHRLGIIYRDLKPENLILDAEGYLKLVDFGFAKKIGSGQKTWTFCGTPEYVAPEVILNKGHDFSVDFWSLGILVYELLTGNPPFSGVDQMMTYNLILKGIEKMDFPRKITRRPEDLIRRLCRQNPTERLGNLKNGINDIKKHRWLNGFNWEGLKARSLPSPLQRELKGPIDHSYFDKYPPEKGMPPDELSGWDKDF
T13 sequence (P06241 whole entry): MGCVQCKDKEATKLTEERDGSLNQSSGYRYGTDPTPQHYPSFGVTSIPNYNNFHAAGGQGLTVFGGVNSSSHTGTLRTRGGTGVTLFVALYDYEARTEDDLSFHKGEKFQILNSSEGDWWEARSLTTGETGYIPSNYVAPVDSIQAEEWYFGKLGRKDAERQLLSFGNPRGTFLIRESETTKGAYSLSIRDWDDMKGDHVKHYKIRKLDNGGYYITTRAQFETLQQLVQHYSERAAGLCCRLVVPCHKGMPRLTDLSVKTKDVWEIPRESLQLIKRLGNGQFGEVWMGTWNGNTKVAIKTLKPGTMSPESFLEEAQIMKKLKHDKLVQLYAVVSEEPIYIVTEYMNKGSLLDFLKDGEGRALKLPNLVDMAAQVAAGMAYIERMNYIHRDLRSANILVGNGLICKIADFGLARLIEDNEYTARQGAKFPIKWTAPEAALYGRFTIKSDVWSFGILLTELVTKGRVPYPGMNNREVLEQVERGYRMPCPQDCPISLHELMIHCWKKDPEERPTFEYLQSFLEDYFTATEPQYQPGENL
T2 sequence (O00444 whole entry): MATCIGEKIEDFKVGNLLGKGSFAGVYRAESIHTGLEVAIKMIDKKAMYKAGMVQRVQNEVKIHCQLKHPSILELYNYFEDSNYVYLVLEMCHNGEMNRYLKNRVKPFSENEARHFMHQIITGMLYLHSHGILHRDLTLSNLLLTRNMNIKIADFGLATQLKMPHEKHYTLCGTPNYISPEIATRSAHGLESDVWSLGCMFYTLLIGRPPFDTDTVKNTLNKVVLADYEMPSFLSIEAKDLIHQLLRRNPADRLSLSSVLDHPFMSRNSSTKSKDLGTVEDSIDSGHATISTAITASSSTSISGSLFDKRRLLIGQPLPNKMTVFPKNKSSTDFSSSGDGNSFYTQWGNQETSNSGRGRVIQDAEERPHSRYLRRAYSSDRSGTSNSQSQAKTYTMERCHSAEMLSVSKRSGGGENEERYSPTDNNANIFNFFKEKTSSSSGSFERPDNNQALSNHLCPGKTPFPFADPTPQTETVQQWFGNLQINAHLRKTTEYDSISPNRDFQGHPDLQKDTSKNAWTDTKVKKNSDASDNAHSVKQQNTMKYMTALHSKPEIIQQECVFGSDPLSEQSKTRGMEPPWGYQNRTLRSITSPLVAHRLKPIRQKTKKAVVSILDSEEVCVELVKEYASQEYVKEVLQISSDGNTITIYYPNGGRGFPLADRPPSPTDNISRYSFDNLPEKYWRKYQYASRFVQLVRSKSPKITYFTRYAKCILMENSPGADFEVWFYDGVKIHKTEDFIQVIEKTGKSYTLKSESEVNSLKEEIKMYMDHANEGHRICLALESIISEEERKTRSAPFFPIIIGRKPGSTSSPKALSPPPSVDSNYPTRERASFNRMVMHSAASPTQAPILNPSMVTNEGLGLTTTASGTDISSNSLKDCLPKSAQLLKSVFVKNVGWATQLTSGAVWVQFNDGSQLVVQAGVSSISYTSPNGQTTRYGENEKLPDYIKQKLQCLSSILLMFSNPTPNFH
T1 sequence (Q56UN5 whole entry): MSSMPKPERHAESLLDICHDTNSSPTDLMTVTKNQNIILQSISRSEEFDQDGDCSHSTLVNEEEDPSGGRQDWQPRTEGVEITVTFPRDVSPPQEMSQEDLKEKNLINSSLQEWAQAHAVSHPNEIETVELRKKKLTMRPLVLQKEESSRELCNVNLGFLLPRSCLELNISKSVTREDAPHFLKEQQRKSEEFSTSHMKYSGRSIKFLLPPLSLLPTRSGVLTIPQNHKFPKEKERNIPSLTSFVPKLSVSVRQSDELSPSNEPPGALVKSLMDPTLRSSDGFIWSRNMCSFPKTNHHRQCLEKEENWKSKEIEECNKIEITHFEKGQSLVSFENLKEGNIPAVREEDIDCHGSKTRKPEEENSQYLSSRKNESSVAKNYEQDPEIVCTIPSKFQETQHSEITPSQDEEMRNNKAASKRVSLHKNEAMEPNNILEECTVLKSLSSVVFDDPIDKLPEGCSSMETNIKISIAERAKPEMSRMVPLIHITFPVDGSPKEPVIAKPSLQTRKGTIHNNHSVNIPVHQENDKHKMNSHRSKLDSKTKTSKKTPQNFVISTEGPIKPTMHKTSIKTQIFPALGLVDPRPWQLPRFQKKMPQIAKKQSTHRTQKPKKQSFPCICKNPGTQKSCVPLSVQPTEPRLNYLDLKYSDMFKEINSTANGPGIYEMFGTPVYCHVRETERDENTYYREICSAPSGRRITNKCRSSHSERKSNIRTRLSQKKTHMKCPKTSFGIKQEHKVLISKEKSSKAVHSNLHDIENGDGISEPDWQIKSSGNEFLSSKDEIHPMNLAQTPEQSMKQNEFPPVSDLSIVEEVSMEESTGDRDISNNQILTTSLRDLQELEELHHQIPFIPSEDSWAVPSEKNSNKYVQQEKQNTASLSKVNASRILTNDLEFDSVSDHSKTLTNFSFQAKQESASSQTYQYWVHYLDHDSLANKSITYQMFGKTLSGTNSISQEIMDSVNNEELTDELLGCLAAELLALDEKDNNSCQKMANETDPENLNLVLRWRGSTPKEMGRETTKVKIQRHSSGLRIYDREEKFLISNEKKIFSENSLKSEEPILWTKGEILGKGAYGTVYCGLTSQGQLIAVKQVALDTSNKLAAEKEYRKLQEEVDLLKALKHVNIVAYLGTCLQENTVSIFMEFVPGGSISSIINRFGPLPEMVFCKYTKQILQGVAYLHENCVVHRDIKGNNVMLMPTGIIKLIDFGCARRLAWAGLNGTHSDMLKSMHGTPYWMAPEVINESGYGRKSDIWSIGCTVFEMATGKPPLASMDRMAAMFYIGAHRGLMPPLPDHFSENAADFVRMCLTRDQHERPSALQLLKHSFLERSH
T3 sequence (P00519 242-493 limits assumed): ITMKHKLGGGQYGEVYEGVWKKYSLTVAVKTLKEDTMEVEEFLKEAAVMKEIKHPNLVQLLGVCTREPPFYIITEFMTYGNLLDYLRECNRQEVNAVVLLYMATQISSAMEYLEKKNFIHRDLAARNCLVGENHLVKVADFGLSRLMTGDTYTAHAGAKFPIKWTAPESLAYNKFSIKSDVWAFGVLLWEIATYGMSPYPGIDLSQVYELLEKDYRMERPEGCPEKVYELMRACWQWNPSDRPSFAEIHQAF
T12 sequence (P00519 242-493 F317I limits assumed): as the sequence (P00519 242-493 limits assumed) above, with F76I counted along it

CCc1ccc2c(c1)C1(NN=C(c3ccccc3)S1)C(=O)N2 (stereo not drawn) [OGM2]
migration (MeWo): inhibited migration | migration (WM115): inhibited migration | % Survival 2 μM OGM (A549): 33.6% | % Survival 10 μM OGM (A549): 18.0% | CC50 (A549; Homo sapiens, A549, read-out: LC50 (the source's name)): < 2000 nM

CCc1ccc2c(c1)C1(NN=C(c3cccc4ccccc34)S1)C(=O)N2 (stereo not drawn) [OGM1, 5-ethyl-5′-naphthalen-1-ylspiro[1H-indole-3,2′-3H-1,3,4-thiadiazole]-2-one]
remaining binding at 10 µM (YSK4): 100% | remaining binding at 10 µM (PLK4): 71% | remaining binding at 10 µM (ABL1-nonphosphorylated): 100% | Antagonism (OX1; 10 uM): 1.6 | Agonism (OX1; 12.5 uM): 1.4 | remaining binding at 10 µM (CDK11): 100% | remaining binding at 10 µM (PRKG2): 91% | remaining binding at 10 µM (NEK11): 88% | Antagonism (FPR2; 10 uM): 23 | Agonism (FPR2; 12.5 uM): −0.4 | remaining binding at 10 µM (EPHB4): 100% | remaining binding at 10 µM (DCAMKL1): 72% | remaining binding at 10 µM (MINK): 97% | remaining binding at 10 µM [1]: 82% | remaining binding at 10 µM (FYN): 100% | remaining binding at 10 µM (DCAMKL3): 100%
